The source of these data is ChEMBL document CHEMBL3991601, “The target landscape of clinical kinase drugs” (Science, 2017).

Each structure is given as a SMILES string. Activity calls are given as the source filed them. Some results are limits rather than exact numbers.

The target in assay [1] is AP2-associated protein kinase 1 (Homo sapiens, UniProt Q2M2I8).
Assay [2] has as its target T1, Very long-chain specific acyl-CoA dehydrogenase, mitochondrial (Homo sapiens, UniProt P49748).
T1 sequence (P49748 whole entry): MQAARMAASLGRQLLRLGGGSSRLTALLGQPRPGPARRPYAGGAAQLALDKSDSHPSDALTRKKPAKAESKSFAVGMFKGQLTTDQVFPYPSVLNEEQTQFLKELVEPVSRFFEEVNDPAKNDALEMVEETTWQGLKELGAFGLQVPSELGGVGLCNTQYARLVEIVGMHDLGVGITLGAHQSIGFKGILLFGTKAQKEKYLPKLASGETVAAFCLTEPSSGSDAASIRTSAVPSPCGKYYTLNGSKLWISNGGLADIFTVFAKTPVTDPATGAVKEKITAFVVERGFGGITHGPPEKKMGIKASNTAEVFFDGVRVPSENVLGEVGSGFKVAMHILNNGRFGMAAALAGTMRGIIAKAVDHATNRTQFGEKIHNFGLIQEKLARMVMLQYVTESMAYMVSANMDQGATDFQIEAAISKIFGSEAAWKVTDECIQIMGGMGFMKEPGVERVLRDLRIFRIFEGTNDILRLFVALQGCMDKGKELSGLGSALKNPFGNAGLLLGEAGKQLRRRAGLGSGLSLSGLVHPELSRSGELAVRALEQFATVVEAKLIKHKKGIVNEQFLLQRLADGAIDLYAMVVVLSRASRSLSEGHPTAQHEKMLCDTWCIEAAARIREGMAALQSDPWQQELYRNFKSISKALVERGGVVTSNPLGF

For assay [3], the target named is Serine/threonine-protein kinase MRCK alpha (Homo sapiens, UniProt Q5VT25).
The target in assay [4] is Casein kinase I isoform epsilon (Homo sapiens, UniProt P49674).
The target of assay [5] is T2, Cyclin-G-associated kinase (Homo sapiens, UniProt O14976).
T2 sequence (O14976 whole entry): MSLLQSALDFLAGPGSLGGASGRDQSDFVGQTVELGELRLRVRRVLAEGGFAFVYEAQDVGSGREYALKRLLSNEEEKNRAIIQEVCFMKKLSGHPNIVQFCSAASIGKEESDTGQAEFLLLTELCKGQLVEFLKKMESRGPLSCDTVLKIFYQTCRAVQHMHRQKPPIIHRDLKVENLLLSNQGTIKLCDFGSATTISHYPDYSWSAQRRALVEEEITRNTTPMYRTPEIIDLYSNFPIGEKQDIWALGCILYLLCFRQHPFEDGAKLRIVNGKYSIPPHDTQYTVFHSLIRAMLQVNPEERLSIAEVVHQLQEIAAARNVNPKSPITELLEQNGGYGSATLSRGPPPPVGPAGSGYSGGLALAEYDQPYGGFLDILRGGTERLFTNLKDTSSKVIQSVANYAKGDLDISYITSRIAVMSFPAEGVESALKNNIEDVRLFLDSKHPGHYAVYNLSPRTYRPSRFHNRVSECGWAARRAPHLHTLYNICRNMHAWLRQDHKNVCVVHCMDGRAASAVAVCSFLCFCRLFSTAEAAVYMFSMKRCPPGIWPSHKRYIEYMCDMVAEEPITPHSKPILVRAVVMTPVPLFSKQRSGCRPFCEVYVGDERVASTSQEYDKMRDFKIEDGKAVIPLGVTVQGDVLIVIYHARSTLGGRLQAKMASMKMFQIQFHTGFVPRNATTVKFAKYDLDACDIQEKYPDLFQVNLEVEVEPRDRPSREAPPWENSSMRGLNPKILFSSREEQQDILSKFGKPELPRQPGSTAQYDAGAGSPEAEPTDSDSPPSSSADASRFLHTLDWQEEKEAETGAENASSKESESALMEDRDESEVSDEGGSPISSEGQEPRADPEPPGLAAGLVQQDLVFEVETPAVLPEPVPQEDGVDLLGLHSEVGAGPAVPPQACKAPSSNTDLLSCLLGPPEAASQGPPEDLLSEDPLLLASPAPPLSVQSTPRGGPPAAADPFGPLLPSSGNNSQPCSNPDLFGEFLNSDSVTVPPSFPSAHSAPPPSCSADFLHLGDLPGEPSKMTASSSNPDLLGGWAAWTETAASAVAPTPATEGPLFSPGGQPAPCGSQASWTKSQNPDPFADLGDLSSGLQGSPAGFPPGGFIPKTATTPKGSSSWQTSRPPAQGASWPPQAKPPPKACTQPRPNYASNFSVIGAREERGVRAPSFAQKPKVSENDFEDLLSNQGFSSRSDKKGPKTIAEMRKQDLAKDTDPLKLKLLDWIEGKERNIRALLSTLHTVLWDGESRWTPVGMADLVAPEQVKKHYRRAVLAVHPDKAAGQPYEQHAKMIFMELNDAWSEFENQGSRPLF

Assay [6] deals with Mitogen-activated protein kinase kinase kinase kinase 5 (Homo sapiens, UniProt Q9Y4K4).
Assay [7] has as its target T3, ADP/ATP translocase 2 (Homo sapiens, UniProt P05141).
T3 sequence (P05141 whole entry): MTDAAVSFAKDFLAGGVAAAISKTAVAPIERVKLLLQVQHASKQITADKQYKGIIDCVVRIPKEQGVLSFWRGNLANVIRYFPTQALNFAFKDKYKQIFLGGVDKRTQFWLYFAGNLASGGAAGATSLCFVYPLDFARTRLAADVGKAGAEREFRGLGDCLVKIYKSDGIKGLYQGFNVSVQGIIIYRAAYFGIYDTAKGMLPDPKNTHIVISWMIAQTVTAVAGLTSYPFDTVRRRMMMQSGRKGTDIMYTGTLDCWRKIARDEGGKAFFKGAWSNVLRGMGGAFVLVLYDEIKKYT

In assay [8] the target is T4, Tyrosine--tRNA ligase, cytoplasmic (Homo sapiens, UniProt P54577).
T4 sequence (P54577 whole entry): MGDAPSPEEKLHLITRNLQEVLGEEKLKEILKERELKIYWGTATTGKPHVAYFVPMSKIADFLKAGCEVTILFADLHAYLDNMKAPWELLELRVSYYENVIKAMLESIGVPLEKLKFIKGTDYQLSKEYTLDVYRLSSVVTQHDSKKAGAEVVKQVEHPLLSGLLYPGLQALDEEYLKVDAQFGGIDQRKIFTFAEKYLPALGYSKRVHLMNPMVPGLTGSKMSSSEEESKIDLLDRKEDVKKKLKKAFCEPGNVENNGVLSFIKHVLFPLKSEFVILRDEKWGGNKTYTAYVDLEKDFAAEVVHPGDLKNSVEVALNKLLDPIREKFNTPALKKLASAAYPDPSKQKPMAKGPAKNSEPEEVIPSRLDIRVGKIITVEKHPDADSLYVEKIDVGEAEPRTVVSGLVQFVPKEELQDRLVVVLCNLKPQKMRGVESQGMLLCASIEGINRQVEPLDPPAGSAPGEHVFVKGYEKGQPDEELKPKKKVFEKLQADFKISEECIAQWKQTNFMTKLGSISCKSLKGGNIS
Further: in the data inactive means no Kd found up to 30 µM.

Chain of Serine/threonine-protein kinase MRCK alpha (Q5VT25 whole entry, canonical isoform): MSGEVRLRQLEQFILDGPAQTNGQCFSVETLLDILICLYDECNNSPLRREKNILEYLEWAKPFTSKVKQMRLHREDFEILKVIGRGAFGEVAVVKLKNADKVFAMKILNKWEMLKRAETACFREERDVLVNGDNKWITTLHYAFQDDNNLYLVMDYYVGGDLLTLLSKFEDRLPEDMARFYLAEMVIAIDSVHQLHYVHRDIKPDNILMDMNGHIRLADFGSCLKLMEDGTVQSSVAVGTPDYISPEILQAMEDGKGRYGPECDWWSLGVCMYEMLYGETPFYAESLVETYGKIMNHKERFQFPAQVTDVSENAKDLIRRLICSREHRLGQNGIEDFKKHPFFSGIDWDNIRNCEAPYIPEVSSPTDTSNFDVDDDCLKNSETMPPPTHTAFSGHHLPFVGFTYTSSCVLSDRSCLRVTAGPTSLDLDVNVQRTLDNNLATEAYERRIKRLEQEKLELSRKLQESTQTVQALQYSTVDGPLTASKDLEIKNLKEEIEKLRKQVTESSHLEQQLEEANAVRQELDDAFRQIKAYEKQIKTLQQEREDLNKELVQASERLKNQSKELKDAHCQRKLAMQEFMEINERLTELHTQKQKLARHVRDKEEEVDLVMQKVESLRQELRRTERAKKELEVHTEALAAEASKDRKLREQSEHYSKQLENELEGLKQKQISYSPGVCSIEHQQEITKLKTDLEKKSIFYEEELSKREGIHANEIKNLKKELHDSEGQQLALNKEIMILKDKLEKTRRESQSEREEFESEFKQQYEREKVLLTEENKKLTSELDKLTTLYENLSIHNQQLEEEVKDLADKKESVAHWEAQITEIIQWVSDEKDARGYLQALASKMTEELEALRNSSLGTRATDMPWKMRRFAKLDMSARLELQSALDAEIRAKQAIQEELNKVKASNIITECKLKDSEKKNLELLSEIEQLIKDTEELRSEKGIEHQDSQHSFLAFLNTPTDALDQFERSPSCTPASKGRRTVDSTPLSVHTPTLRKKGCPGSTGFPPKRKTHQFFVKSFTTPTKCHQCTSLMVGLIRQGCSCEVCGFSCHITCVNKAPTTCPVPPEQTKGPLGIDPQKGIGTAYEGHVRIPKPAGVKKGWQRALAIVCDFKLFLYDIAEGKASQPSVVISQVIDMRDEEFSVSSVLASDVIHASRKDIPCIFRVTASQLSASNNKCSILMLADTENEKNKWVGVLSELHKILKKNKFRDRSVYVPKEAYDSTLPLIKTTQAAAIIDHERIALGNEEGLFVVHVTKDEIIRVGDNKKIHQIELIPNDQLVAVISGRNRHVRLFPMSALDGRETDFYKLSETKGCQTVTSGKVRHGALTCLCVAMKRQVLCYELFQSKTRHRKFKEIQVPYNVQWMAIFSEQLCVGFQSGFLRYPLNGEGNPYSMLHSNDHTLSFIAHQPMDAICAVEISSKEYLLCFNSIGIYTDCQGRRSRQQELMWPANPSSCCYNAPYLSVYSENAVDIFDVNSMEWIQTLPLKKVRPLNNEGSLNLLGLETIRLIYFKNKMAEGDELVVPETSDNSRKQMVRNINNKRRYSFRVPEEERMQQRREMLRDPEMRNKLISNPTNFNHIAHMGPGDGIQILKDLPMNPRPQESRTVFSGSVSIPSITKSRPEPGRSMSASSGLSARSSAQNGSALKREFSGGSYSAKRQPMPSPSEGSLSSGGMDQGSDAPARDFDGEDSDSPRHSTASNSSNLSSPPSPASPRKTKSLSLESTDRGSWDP
Chain of Mitogen-activated protein kinase kinase kinase kinase 5 (Q9Y4K4 whole entry): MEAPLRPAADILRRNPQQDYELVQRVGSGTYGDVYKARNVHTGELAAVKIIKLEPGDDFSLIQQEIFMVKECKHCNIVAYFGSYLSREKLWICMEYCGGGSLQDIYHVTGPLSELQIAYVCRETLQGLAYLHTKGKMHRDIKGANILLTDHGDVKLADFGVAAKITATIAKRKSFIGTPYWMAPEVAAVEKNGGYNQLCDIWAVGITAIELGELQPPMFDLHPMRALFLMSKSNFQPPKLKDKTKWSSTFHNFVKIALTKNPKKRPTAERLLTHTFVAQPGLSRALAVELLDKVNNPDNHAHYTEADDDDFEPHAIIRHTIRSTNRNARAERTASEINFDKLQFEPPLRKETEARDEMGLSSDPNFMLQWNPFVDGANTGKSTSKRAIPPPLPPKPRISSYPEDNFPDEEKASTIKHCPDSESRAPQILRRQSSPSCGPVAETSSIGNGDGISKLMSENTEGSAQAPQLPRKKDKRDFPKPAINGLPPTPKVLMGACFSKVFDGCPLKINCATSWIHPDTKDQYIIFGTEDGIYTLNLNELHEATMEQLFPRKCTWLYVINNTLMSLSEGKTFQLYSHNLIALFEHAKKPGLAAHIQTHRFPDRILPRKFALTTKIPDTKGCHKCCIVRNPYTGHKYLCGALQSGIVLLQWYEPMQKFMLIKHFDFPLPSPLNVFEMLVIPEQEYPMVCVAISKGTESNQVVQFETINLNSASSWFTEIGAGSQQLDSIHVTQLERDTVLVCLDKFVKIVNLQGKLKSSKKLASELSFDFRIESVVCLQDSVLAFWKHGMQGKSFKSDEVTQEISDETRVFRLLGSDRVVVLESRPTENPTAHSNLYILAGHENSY
Chain of Casein kinase I isoform epsilon (P49674 whole entry, canonical isoform): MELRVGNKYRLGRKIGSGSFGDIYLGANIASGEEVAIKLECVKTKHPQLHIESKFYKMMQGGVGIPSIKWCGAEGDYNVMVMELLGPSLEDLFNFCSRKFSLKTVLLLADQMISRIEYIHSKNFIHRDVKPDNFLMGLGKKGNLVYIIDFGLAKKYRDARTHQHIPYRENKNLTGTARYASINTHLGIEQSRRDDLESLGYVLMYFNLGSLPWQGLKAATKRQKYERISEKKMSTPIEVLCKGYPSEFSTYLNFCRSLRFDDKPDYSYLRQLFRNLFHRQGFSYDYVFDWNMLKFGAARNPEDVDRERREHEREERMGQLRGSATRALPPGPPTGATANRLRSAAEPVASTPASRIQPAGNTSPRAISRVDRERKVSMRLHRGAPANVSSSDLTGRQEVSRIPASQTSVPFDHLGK
Chain of AP2-associated protein kinase 1 (Q2M2I8 whole entry): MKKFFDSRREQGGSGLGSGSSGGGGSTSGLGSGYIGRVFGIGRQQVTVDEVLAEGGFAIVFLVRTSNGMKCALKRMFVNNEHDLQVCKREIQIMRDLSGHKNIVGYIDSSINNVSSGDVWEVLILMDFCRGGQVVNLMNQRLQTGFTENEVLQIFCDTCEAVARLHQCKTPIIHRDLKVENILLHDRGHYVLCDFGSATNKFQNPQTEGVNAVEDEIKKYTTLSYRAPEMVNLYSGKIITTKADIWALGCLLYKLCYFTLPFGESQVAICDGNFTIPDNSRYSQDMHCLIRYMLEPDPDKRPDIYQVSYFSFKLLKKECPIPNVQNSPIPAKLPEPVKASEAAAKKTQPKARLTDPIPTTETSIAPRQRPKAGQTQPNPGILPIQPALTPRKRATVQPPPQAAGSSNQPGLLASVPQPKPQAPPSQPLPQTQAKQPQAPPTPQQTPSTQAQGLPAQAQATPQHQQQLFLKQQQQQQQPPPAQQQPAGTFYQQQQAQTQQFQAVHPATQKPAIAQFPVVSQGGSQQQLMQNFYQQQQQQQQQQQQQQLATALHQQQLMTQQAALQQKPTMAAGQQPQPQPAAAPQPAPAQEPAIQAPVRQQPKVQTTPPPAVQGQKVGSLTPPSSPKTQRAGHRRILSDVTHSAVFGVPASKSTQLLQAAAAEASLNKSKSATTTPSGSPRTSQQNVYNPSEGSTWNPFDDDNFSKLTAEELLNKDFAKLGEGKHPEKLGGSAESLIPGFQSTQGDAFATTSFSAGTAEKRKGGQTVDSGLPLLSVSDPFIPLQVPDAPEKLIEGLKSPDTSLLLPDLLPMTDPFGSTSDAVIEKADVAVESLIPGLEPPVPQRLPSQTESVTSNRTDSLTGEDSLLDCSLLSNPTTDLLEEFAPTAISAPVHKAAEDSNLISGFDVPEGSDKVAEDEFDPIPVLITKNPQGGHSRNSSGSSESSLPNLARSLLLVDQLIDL

By Kd is commonly meant the constant that tells how readily two partners part at equilibrium. Consider `Cc1ccc(S(=O)(=O)Nc2nc3ccccc3nc2Nc2ccc3nsnc3c2)cc1`, for which the Kd in assay [1], in assay [2], in assay [3], in assay [4], in assay [5] and in assay [6] was > 30 µM (inactive) throughout. For the same molecule, the Kd in assay [7] and in assay [8] was > 30 µM (inactive) throughout.

On to `Cn1cc(-c2ccc(F)c(C(F)(F)F)c2)nc1C1CCN(c2ncnc3[nH]ncc23)CC1` [LY-2584702], for which the Kd in assay [1], in assay [2], in assay [3], in assay [4], in assay [5] and in assay [6] was > 30 µM (inactive) each time. The Kd in assay [7] and in assay [8] was > 30 µM (inactive) each time.

As to `CN(C)C(=O)c1cc2cnc(Nc3ccc(N4CCNCC4)cn3)nc2n1C1CCCC1` [RIBOCICLIB], the Kd in assay [1] was > 30 µM (inactive); in assay [2], > 30 µM (inactive); in assay [3], > 30 µM (inactive); in assay [4], > 30 µM (inactive); in assay [5], 0.658 µM (active); in assay [6], > 30 µM (inactive). For the same molecule, the Kd in assay [7] and in assay [8] was > 30 µM (inactive) in each case.

Regarding `O=C(Nc1ccc(-c2ccnc(Nc3ccc(N4CCOCC4)cc3)n2)cc1)C1CCCN1` (stereo not given) [XL-019], the Kd in assay [1] was 0.006 µM (active); in assay [2], > 30 µM (inactive); in assay [3], > 30 µM (inactive); in assay [4] it was > 30 µM (inactive); in assay [5], 0.05 µM (active); in assay [6] it was > 30 µM (inactive). For the same molecule, the Kd in assay [7] and in assay [8] was > 30 µM (inactive) throughout.

In the case of `CNC(=O)CN1CCC(Oc2cc3c(Nc4cccc(Cl)c4F)ncnc3cc2OC)CC1` [SAPITINIB], the Kd is > 30 µM (inactive) in assay [1]; > 30 µM (inactive) in assay [2]; > 30 µM (inactive) in assay [3]; > 30 µM (inactive) in assay [4]; 0.176 µM (active) in assay [5]; > 30 µM (inactive) in assay [6]. Also, the Kd in assay [7] and in assay [8] was > 30 µM (inactive) each time.

`Cc1cc([C@@H](C)Nc2ccccc2C(=O)O)c2nc(N3CCOCC3)cc(=O)n2c1` [AZD-6482]: the Kd in assay [1], in assay [2], in assay [3], in assay [4], in assay [5] and in assay [6] was > 30 µM (inactive) throughout. Further, the Kd in assay [7] and in assay [8] was > 30 µM (inactive) throughout.

With `CCN1CCN(Cc2ccc(-c3cc4c(N[C@H](C)c5ccccc5)ncnc4[nH]3)cc2)CC1` [AEE-788], the Kd in assay [1] was > 30 µM (inactive); in assay [2], > 30 µM (inactive); in assay [3] it was > 30 µM (inactive); in assay [4] it was > 30 µM (inactive); in assay [5] it was > 30 µM (inactive); in assay [6] it was 50.2 µM (active). The Kd in assay [7] and in assay [8] was > 30 µM (inactive) throughout.

As for `CC(=O)Nc1cccc(-n2c(=O)n(C3CC3)c(=O)c3c(Nc4ccc(I)cc4F)n(C)c(=O)c(C)c32)c1` [TRAMETINIB], the Kd in assay [1], in assay [2], in assay [3], in assay [4], in assay [5] and in assay [6] was > 30 µM (inactive) throughout. Besides, the Kd in assay [7] and in assay [8] was > 30 µM (inactive) in each case.

In the case of `COCCNCc1ccc(-c2cc3nccc(Oc4ccc(NC(=S)NC(=O)Cc5ccc(F)cc5)cc4F)c3s2)nc1` [GLESATINIB], the Kd in assay [1], in assay [2], in assay [3], in assay [4], in assay [5] and in assay [6] was > 30 µM (inactive) each time. Moreover, the Kd in assay [7] and in assay [8] was > 30 µM (inactive) each time.

On to `CNS(=O)(=O)Nc1nccc(Cc2c(C)c3ccc(Oc4ncccn4)cc3oc2=O)c1F` [AVUTOMETINIB], for which the Kd in assay [1], in assay [2], in assay [3], in assay [4], in assay [5] and in assay [6] was > 30 µM (inactive) throughout. The Kd in assay [7] and in assay [8] was > 30 µM (inactive) throughout.
